In patent publication US5256533A, “As a probe of serotonin uptake harmaline” (Board of Regents, The University of Texas System, priority 1990, dated 1993):
Entries after “also recorded” stand apart in the source; their conditions may differ.

Columns and labels:
[1] = tested on: lymphocytes and platelets; assay: Harmaline accumulation in blood cells by ultraviolet flow cytometry; format: cell-based, human
Procedure: (§1) For this experiment, the beta carboline, harmaline was used. […] Prior to the use of a beta carboline to analyze blood tissues, blood was collected, then leukocytes and platelets were gradient separated utilizing a hypaque/centrifugation technique. The leukocytes were then re-suspended in culture media (phosphate buffered saline (PBS) with bovine serum albumin) at a concentration of […]. The cells and platelets may then be incubated with a solution containing antagonist(s) or blockers of undesired neurotransmitter interactions. With harmaline, there is some amount of cross reactivity with the alpha-2 (noradrenaline) receptor. As the blood cells and platelets both have alpha-2 receptors, the noradrenaline antagonist, yohimbine was chosen to block undesired reactivity with these sites. Cells were incubated for 10 minutes with a 100 μM solution of yohimbine. The cells were then divided into numerous samples which were each exposed to increasing concentrations of harmaline (1 μM to 100 μM concentrations were used) for a period of five minutes each. […] The labelled cells were then analyzed using both spectrophotofluorometry and ultraviolet flow cytometry. With the flow cytometry-analyzed tissue an experiment to detect the presence of imipramine, the serotonin uptake system antagonist, was implemented.
With flow cytometry, a sample of cells was treated prior to analysis, as above. Fluorescence of individual cells was then analyzed sequentially as they passed through detection beams of light in a micro-stream of fluid. Using this method, literally emissions of cells, or "events" were analyzed and statistically computed to elicit accuracy of analysis. In addition, as individual cells are analyzed, more subtle changes in fluorescence ligand-cell association can be appreciated. There are some procedures for measuring the actual number of binding sites on cells which combine flow cytometry with steady-state fluorescence (Steinkamp and Kramer 1979) or radiometric assays (Titus et al. 1981), while others employ fluorescent calibration standards (Sklar et al. 1984). […]

[2] = molecular target: [^3 H]Serotonin binding sites of brain tissue; assay: Inhibition of [3H]serotonin binding by brain homogenates; settings: concentration causing 50% inhibition of isotope binding
Procedure: (§2) TABLE 1 illustrates the general inhibitory effects of beta carbolines on neurotransmitter binding by brain tissue. Samples of brain tissue rich in the respective neurotransmitter binding sites were obtained, homogenized, washed and incubated with a series of beta carboline concentrations. After subsequent additions of tritiated neurotransmitters, the extent of beta carboline inhibition of labeled neurotransmitter binding was measured. As shown, a variety of beta carbolines were effective antagonists of several neurotransmitters. […] These beta carbolines may be used as vital stains for the respective neurotransmitter systems, accumulating in living tissue.

benzodiazepine receptor = settings: Muller et al. 1981; cited from earlier work
[3] = molecular target: [^3 h]Noradrenaline binding sites of brain tissue; assay: Inhibition of [3H]noradrenaline binding by brain homogenates; settings: concentration causing 50% inhibition of isotope binding
Procedure: (§3) Samples of brain tissue rich in the respective neurotransmitter binding sites were obtained, homogenized, washed and incubated with a series of beta carboline concentrations. After subsequent additions of tritiated neurotransmitters, the extent of beta carboline inhibition of labeled neurotransmitter binding was measured.

[4] = molecular target: [^3 H]GABA binding sites of brain tissue; assay: Inhibition of [3H]GABA binding by brain homogenates; settings: concentration causing 50% inhibition of isotope binding
Procedure: as §3

leukocytes and platelets = assay: Harmaline accumulation in blood cells by spectrophotofluorometry; format: cell-based, human
Procedure: as §1, with “receptor.” for “receptor. As the blood cells and platelets both have alpha-2 receptors, the noradrenaline antagonist, yohimbine was chosen to block undesired reactivity with these sites. Cells were incubated for 10 minutes with a 100 μM solution of yohimbine. The cells were then divided into numerous samples which were each exposed to increasing concentrations of harmaline (1 μM to 100 μM concentrations were used) for a period of five minutes each.”
In spectrophotofluorometry (SPF), a volume of labeled cells in suspension are analyzed together, the sum of their emitted fluorescence recorded using a spectrophotofluorometer and compared with other samples with the same concentration of cells. […] This method assumes that the fluorescence emitted from a sum of collected sources (cells) increases proportionally with an individual source. […]

serotonin receptors = settings: Glennon 1981; cited from earlier work
[5] = tested on: muscarinic cholinergic sites; settings: Muller et al. 1981; cited from earlier work
monoamine oxidase A = settings: Fuller et al. 1985; cited from earlier work
opiate sites = settings: Muller et al. 1981; cited from earlier work
[6] = tested on: ^3 H-serotonin uptake by retina; assay: Inhibition of 3H-serotonin uptake in retina (FIG. 5); format: cell-based
rat retina = assay: Fluorescent harmaline accumulation in perfused living retina; format: cell-based
Procedure: One test of the serotonin site ligand, harmaline, is in the neuronal tissue of the rat retina. This tissue is known to contain intracellular serotonin. The serotonergic neurotransmitter system in rat retinal neurons has been previously studied and sites of serotonin accumulation have been identified (Redburn and Churchill 1987) primarily using radiolabelled ^3 H-serotonin (see FIG. 2). According to one test of the invention, it was determined that harmaline accumulated in living rat retina tissue in a specific manner. […] The harmaline present in the OPL begins to dissipate when the stained retina is exposed to sodium-free buffer (see FIG. 3, frame B). Exposure of the stained retina to darkness stimulates harmaline release from the OPL (see FIG. 3, frame C). Further, quantitative evaluation of harmaline accumulation was achieved by measuring the amount of fluorescence given off by harmaline when excited with UV-radiation. A light meter was used to generate data. The light meter gathered light emissions from the eyepiece of an ultraviolet microscope. Harmaline's excitation spectrum is 350-390 nm with emission spectra greatest at 480 and 560 nm in the visible range producing a blue green light. Tissue was placed under a microscope in a sealed perfusion chamber through which oxygenated (95% O2 -5% CO2) buffer flowed. Upon administration of harmaline, data from the light meter was standardized to units of harmaline concentration (using standard curves).

[7] = molecular target: [^3 H]Choline binding sites of brain tissue; assay: Inhibition of [3H]choline binding by brain homogenates; settings: concentration causing 50% inhibition of isotope binding
Procedure: as §3

[8] = molecular target: [^14 C]Dopamine binding sites of brain tissue; assay: Inhibition of [14C]dopamine binding by brain homogenates; settings: read-out: IC50, inhibition binding, concentration causing 50% inhibition of isotope binding
Procedure: as §2, with “After subsequent additions of tritiated neurotransmitters, the extent of beta carboline inhibition of labeled neurotransmitter binding was measured.” left out

[9] = tested on: noradrenergic system of blood cells and platelets; assay: THN accumulation in blood cells and platelets, noradrenaline system; format: cell-based; settings: imipramine 100 μM and serotonin 100 μM pretreatment; extrapolated from literature
Procedure: The analysis of a noradrenaline system using the beta carboline tetrahydronorharman (THN) could be tested using the method described with blood cells and platelets. Cells and platelets would be collected, then pre-treated with solutions to block sites of the serotonin system in order to limit interactions to that of the noradrenergic system. Cells would be first incubated for 10 minutes with the serotonin uptake blocker, imipramine at 100 μM, following which serotonin itself was added to make a concentration of 100 μM for an additional 5 minute incubation. The cells and platelets thusly prepared would then be incubated with the beta carboline, THN, at concentrations of 10 nM to 100 μM. […] These values were obtained via extrapolation from pertinent literature on THN and noradrenaline.

[10] = perfusion concentration 5 μM harmaline

Row | Compound | IC50 [2] | IC50 [3] | IC50 [4] | Inhibition of ^3 H-serotonin uptake by retina [6] | IC50 [7] | IC50 [8] | also measured
1 | 7-methoxy-3,4-dihydro-beta-carboline [harmaline] | 43 µM | 43 µM | 238 µM | competitively inhibited |  |  | Concentration at which accumulation saturates ([1]; at 5 minutes): 75 to 100 µM; EC50 ([1]; yohimbine 100 μM pretreatment, harmaline 1-100 μM, 5 minutes, read-out: EC50 of fluorescent accumulation (flow cytometry)): 25 µM; Potency at benzodiazepine binding relative to serotonin or dopamine (benzodiazepine receptor): far more potent antagonist of benzodiazepine binding than it is for serotonin or dopamine; Nature of accumulation in human lymphocytes (leukocytes and platelets; fluorescence measurement): saturable, concentration-dependant phenomena; EC50 (leukocytes and platelets; yohimbine 100 μM pretreatment, harmaline 1-100 μM, 5 minutes, read-out: EC50 of fluorescent accumulation (spectrophotofluorometry)): 30 µM; Binding affinity for serotonin receptors (serotonin receptors): high binding affinities; IC50 for muscarinic cholinergic sites relative to other sites [5]: about four times lower than for serotonin or dopamine sites; also recorded: about four times higher than found for benzodiazepine antagonism; Inhibition of monoamine oxidase A in vivo (monoamine oxidase A): potently inhibit; IC50 for opiate sites relative to other sites (opiate sites): about four times lower than for serotonin or dopamine sites; also recorded: about four times higher than found for benzodiazepine antagonism; Accumulation inside versus outside the cell (rat retina): three times greater inside than outside the cell; Dependence of accumulation in retina (rat retina): sodium dependent, energy dependent; Harmaline concentration in outer retina relative to control (non-viable) tissue (rat retina; [10]): 3 fold; Harmaline concentration in outer retina relative to surrounding perfusate (rat retina; [10]): 3 fold
2 | c1ccc2c3c([nH]c2c1)CNCC3 [1,2,3,4-tetrahydro-beta-carboline] | 6 µM | 13 µM | 153 µM |  | 9000 µM | 220 µM | THN concentration at which fluorescent accumulation saturates [9]: approximately 10 μM
3 | COc1ccc2c(c1)[nH]c1c(C)nccc12 [7-methoxy-1-methyl-beta-carboline] | 27 µM | 700 µM |  |  | 200 µM |  | 
4 | c1ccc2c(c1)[nH]c1cnccc12 [beta-carboline] | 9.1 µM | 80 µM | 335 µM |  | 75 µM | 100 µM | 
5 | CN(C)CCCN1c2ccccc2CCc2ccccc21 [imipramine] |  |  |  | antagonized |  |  | Effect on measured harmaline accumulation ([1]; brief incubation with imipramine 25 μM): the measured harmaline accumulation was less
